Common to all, as to assay type: functional
One assay deals with Candida parapsilosis. As to the kind of experiment: Antifungal activity against Candida parapsilosis MTCC 1744 after 18 hrs by microtiter broth dilution method. The following applies: Lodderomyces parapsilosis, MTCC 1744, 18 h. (Broth dilution looks for growth in wells or tubes with falling amounts of substance.)
Another assay has as its system Pichia kudriavzevii. As to the kind of experiment: Antifungal activity against Issatchenkia orientalis MTCC 3020 after 18 hrs by microtiter broth dilution method. The following applies: MTCC 3020, 18 h.
For assay [1], the system named is Candida albicans. As to the kind of experiment: Antifungal activity against Candida albicans MTCC 3017 after 18 hrs by microtiter broth dilution method. Conditions: MTCC 3017, 18 h.
The subject of another assay is Aspergillus niger. As to the kind of experiment: Antifungal activity against Aspergillus niger MTCC 281 after 18 hrs by microtiter broth dilution method. The following applies: MTCC 281, 18 h.
For assay [2], the system named is Candida albicans. As to the kind of experiment: Antifungal activity against Candida albicans MTCC 227 after 18 hrs by microtiter broth dilution method. The following applies: MTCC 227, 18 h.
For assay [3], the system named is Candida albicans. As to the kind of experiment: Antifungal activity against Candida albicans MTCC 4748 after 18 hrs by microtiter broth dilution method. The following applies: MTCC 4748, 18 h.

Values after ≈ are worked out from the molar mass of the structure shown.

A word on the MIC: it is the smallest concentration in the dilution series that meets the test's criterion for growth inhibition. Read a low MIC as greater potency.

`CCCCCC[C@H](CCC(=O)O)OC`: the MIC amounted to 625 µg/mL (≈ 3090 µM) in the assay with Candida parapsilosis; 19 µg/mL (≈ 93.9 µM) with Pichia kudriavzevii; 312 µg/mL (≈ 1540 µM) in the assay on Candida albicans [1]; 19 µg/mL (≈ 93.9 µM) in the assay with Aspergillus niger; 19 µg/mL (≈ 93.9 µM) against Candida albicans [2]; 19 µg/mL (≈ 93.9 µM) with Candida albicans [3].

With `CCCCCC[C@@H](CCC(=O)O)OC`, the MIC against Candida parapsilosis turned out to be 156 µg/mL (≈ 771 µM); against Pichia kudriavzevii, 312 µg/mL (≈ 1540 µM); in the assay on Candida albicans [1] it was 156 µg/mL (≈ 771 µM); against Aspergillus niger, 1240 µg/mL (≈ 6120 µM); with Candida albicans [2] it was 1250 µg/mL (≈ 6180 µM); with Candida albicans [3], 39 µg/mL (≈ 193 µM).

Consider `CCCCCCC[C@H](CCC(=O)O)OC`, for which the MIC against Pichia kudriavzevii came out at 312 µg/mL (≈ 1440 µM); with Candida albicans [1] it was 1250 µg/mL (≈ 5780 µM); in the assay with Aspergillus niger, 168 µg/mL (≈ 777 µM); in the assay on Candida albicans [2] it was 156 µg/mL (≈ 721 µM); against Candida albicans [3], 78 µg/mL (≈ 361 µM).

With `CCCCCCC[C@@H](CCC(=O)O)OC`, the MIC against Candida parapsilosis worked out at 2500 µg/mL (≈ 11600 µM); in the assay on Pichia kudriavzevii, 2500 µg/mL (≈ 11600 µM); with Candida albicans [1], 1250 µg/mL (≈ 5780 µM); in the assay with Aspergillus niger, 82 µg/mL (≈ 379 µM); against Candida albicans [2], 78 µg/mL (≈ 361 µM); against Candida albicans [3], 156 µg/mL (≈ 721 µM).

In the case of `CCCCCCC(CCC(=O)O)OC` (racemic), the MIC is 5010 µg/mL (≈ 24800 µM) with Candida parapsilosis; 1250 µg/mL (≈ 6180 µM) in the assay with Pichia kudriavzevii; 5010 µg/mL (≈ 24800 µM) against Candida albicans [1]; 631 µg/mL (≈ 3120 µM) in the assay with Aspergillus niger; 625 µg/mL (≈ 3090 µM) in the assay on Candida albicans [2]; 156 µg/mL (≈ 771 µM) in the assay on Candida albicans [3].

Consider `CCCCCCCC(CCC(=O)O)OC` (racemic), for which the MIC with Candida parapsilosis was determined as 625 µg/mL (≈ 2890 µM); against Pichia kudriavzevii, 312 µg/mL (≈ 1440 µM); in the assay on Candida albicans [1], 78 µg/mL (≈ 361 µM); in the assay with Aspergillus niger, 164 µg/mL (≈ 758 µM); with Candida albicans [2], 156 µg/mL (≈ 721 µM); in the assay with Candida albicans [3] it was 19 µg/mL (≈ 87.8 µM).

Turning to `OC(Cn1cncn1)(Cn1cncn1)c1ccc(F)cc1F` [FLUCONAZOLE], the MIC against Candida parapsilosis amounted to 16 µg/mL (≈ 52.2 µM); with Pichia kudriavzevii, 128 µg/mL (≈ 418 µM); with Candida albicans [1], 64 µg/mL (≈ 209 µM); in the assay on Aspergillus niger, 34 µg/mL (≈ 111 µM); in the assay with Candida albicans [2], 32 µg/mL (≈ 104 µM); in the assay on Candida albicans [3], 32 µg/mL (≈ 104 µM).

The values are drawn from ChEMBL document CHEMBL1795284, “Total synthesis of racemic and (R) and (S)-4-methoxyalkanoic acids and their antifungal activity” (2011).
